Data on 87 compounds can be found in ChEMBL document CHEMBL1157539, “Thousands of chemical starting points for antimalarial lead identification” (Nature, 2010).

In the experiment the test system is Plasmodium falciparum. The experiment can be described thus: GSK_TCMDC: Inhibition of Plasmodium falciparum 3D7 in whole erythrocytes, using parasite LDH activity as an index of growth. Format: functional, organism-based. Particulars: Plasmodium falciparum, 3D7.
`Cc1nc2ccccc2c(=O)n1/N=C/c1ccccc1[N+](=O)[O-]` came in with an XC50 of 221 nM.
For `O=C(Nc1ccc(I)cc1)Nc1ccc(Cn2ncc(N3CCCNCC3)c(Cl)c2=O)cc1`, the XC50 stood at 1120 nM.
To `O=C(NC1CCC(CN2CCC(c3c[nH]c4ccccc34)CC2)CC1)c1cc2cccc([N+](=O)[O-])c2[nH]1` (configuration not stated) belongs 341 nM; to `CN(C(=O)c1ccc(Br)cc1)c1ccccc1[N+](=O)[O-]`, 926 nM.
Consider `C=CCn1c(Sc2ccc(C#N)c([N+](=O)[O-])c2)nnc1-c1cccc(Cl)c1`, for which the XC50 worked out at 301 nM.
Regarding `Cc1cc(O)nc(NC(=N)NOCc2ccccc2)n1`, the XC50 was 423 nM.
The compound `CC(C)(C)C1=CC(=NNC(=O)c2ccncc2)C=C(C(C)(C)C)C1=O` displayed an XC50 of 704 nM.
Under `COc1ccc(CON2C(=N)N=C(N)NC2(C)C)cc1OC` stands 6.06 nM; under `C(=NN=c1cc(-c2ccccc2)[nH]c2ccccc12)c1cccnc1`, 1230 nM.
Under `CCCCC(=O)N(CCOC)Cc1ccc(-c2ccc(CNCCC)cn2)cc1` stands 730 nM.
To `COc1ccc(-c2ccc(CNC3Cc4ccccc4C3)cc2)cc1S(=O)(=O)NCCN1CCCC1` belongs 798 nM.
As to `CN1CCC[C@H]1COc1ccc(CN2CC[C@H](NC(=O)c3ccc(Cl)c(Cl)c3)C2)c2ccccc12`, the XC50 was found to be 946 nM.
Under `Nc1cccc(CNCc2cccc(-c3ccc(-c4nc5ccccc5[nH]4)cc3)c2)c1` stands 415 nM; under `COc1ccc(C(=O)C2CC2CN2CC=C(c3c[nH]c4ccc(OC)nc34)CC2)cc1` (configuration not stated), 479 nM; under `FC(F)(F)c1cnc(Sc2nnc(-c3ccco3)o2)c(Cl)c1`, 791 nM.
To `O=C(Nc1cccc(-c2nn3ccccc3c2-c2ccnc(Nc3cccc(F)c3)n2)c1)c1c(F)ccc(F)c1F` belongs 856 nM; to `c1cc(CNCCN2CCNCC2)cc(-c2ccc(-c3nc4ccccc4[nH]3)cc2)c1`, 1080 nM.
Under `Cc1nc(-c2nc(N3CCC(O)CC3)ncc2-c2ccsc2)sc1C` stands 939 nM; under `CCOC(=O)c1ccc2[nH]c(-c3ccc(C(=O)NC4CCN(Cc5ccccc5)CC4)s3)nc2c1`, 745 nM.
On to `Cc1cc(-c2ccc(CNC3Cc4ccccc4C3)cc2)ccc1S(=O)(=O)NCCN1CCCC1`, for which the XC50 is 704 nM.
To `CCCCCCC(C)c1cc(OCCN(CC)CC)c2c(c1)OC(C)(C)C=C2c1ccncc1` (configuration not stated) belongs 1260 nM.
Under `CN1CCN(c2ccnc3ccc(NC(=O)Cc4ccc5ccccc5c4)cc23)CC1` stands 759 nM; under `O=C(NCc1ccccc1)NC(CCCN1CCC(Oc2cccc(Cl)c2)CC1)c1ccc(Cl)c(Cl)c1` (configuration not stated), 862 nM.
To `O=C(Nc1ccc(-c2ccc(-c3nc4cc(C(F)(F)F)ccc4[nH]3)cc2)cc1)Nc1ccc(F)c(F)c1F` belongs 217 nM; to `CCCCCCN1CCN(Cc2cccc(NC(=O)c3ccc(Cl)c(Cl)c3)c2)CC1`, 610 nM; to `O=C1CSc2ccc(CNC3CCN(CCc4c(Cl)cnc5ccc(F)cc45)CC3)nc2N1`, 427 nM.
In turn, `O=C(/C=C/c1ccc(Cl)c(Cl)c1)NCCC1CCC(N2CCC(c3c[nH]c4ccc(O)cc34)CC2)CC1` (configuration not stated) displayed an XC50 of 762 nM.
Under `CN1CCC(NCc2cccc(-c3ccc(S(=O)(=O)NCCc4ccccn4)cc3)c2)CC1` stands 827 nM.
Under `O=C(Nc1ccsc1)Nc1cccc(-c2cccc(-c3nc4ccccc4[nH]3)c2)c1` stands 117 nM; under `CCCc1c(C(=O)OCC)c2cc(O)ccc2n1-c1ccc(OC)cc1`, 138 nM.
To `CCCN(CCC)CCCOc1ccc(C(=O)c2c(-c3ccc(OCCCN(CCC)CCC)cc3)oc3ccc(Cl)cc23)cc1` belongs 340 nM; to `O=C(Nc1cccc(-c2ccc(CN3CCCC3)cc2)c1)c1ccc(F)cc1`, 1080 nM; to `COc1cc(NC(=O)/C=C/c2cccc3cc[nH]c23)ccc1OCCN(C(C)C)C(C)C`, 270 nM.
Regarding `O=C(NC1CCCCC1)C(c1cccs1)N(CCc1ccccc1)C(=O)c1ccco1` (configuration not stated), the XC50 was 1040 nM.
Under `COC(=O)c1cccc(CNCc2cccc(-c3cccc(-c4nc5cc(C(F)(F)F)ccc5[nH]4)c3)c2)c1` stands 172 nM; under `N#Cc1ccc(-c2ccc(C(=O)NCCCCN3CCC(c4nc5ccccc5[nH]4)CC3)cc2)cc1`, 1010 nM.
To `Nc1nccc(-c2ccc3c(/C=C/c4ccccc4)cnc(N)c3c2)n1` belongs 621 nM.
Consider `CC1CN(c2ncc(-c3ccc(CNC4Cc5ccccc5C4)cc3)cn2)CC(C)N1` (configuration not stated), for which the XC50 worked out at 1160 nM.
For `CCn1c(-c2nonc2N)nc2c(-c3cccc(NC(=O)Nc4cccc(C(F)(F)F)c4)c3)ncc(OCCCN)c21`, the XC50 was 969 nM.
`Cc1cc(C2CCN(CCCCNC(=O)c3ccc(NC(=O)c4ccc(Cl)cc4)cc3)CC2)c(C)cc1OCc1ccncc1` returned an XC50 of 501 nM.
`Cc1cc(C2CCN(CCCCNC(=O)c3ccc(NC(=O)c4ccc(Cl)cc4)cc3)CC2)c(C)cc1OCc1nccn1C` yielded an XC50 of 835 nM.
Under `O=C(Nc1cc(Cl)ccc1Cl)N[C@H]1CCN(CCCCCNC(=O)C2CC2c2ccc(Cl)c(Cl)c2)C1` (some centres not stated) stands 770 nM.
To `COc1ccc(C(=O)C2CCN(CCCCNC(=O)c3ccc(NC(=O)c4ccc(Cl)cc4)cc3)CC2)c(OC)c1` belongs 772 nM.
Under `CCc1cc2c(cc1OCCN(C)C)N(C(=O)Nc1ccc(-c3ccncc3)c(Cl)c1)CC2` stands 840 nM; under `CCOC(=O)c1c(-c2ccccc2)nc2c(sc3ccccc32)c1O`, 375 nM.
`COc1cc2nc(N[C@@H](CO)c3ccccc3)nc(NCc3ccccc3)c2cc1OC` came in with an XC50 of 657 nM.
For the compound `CCN(CC)CCN(Cc1ccc(-c2ccc(C(F)(F)F)cc2)cc1)C(=O)c1c[nH]c2ccc(Br)cc12`, the XC50 was found to be 953 nM.
Turning to `CCCCCOc1c(CCC)cc(Cc2cnc(N)nc2N)cc1CCC`, the XC50 came to 898 nM.
To `CC(=O)c1ccc(-c2ccccc2)s1` belongs 1080 nM.
For the compound `Cc1nc(N)nc(N)c1-c1ccc(Br)c(Br)c1`, the XC50 is 53.6 nM.
To `Cc1cc2c(cc1C(F)(F)F)N(C(=O)Nc1cc(OCCN(C)C)cc(C(F)(F)F)c1)CC2` belongs 708 nM; to `CC[C@H]1CN2CC[C@H]1C[C@H]2[C@H](O)c1cc(-c2ccc(OC(F)(F)F)cc2)nc2ccc(OC)cc12`, 51.1 nM.
To `Cc1[nH]c2cc(F)ccc2c1C1=CCN(CCCCC2(C)C(=O)Nc3c(F)cccc32)CC1` (configuration not stated) belongs 397 nM; to `Clc1ccc(OCc2ccccc2)c(-c2nc(-c3nc4ncc(Br)cc4[nH]3)cs2)c1`, 214 nM.
To `Cc1ccc(C(NC(=O)C2CCCCC2)c2ccc3cccnc3c2O)cc1` (configuration not stated) belongs 953 nM; to `N#Cc1ccc2c(c1)CCN(CCC1CCC(NC(=O)Nc3ccncc3)CC1)C2` (configuration not stated), 1130 nM.
Consider `O=C(Nc1ccc(CN2CCOCC2)cc1)c1ccc(-c2cc(Cl)ccc2Cl)o1`, for which the XC50 was determined as 613 nM.
To `NC(=O)c1cccc(C(=O)Nc2cccc(-c3ccc(-c4nc5cc(C(F)(F)F)ccc5[nH]4)cc3)c2)c1` belongs 520 nM.
Under `COc1cc(NC(=O)c2sc(-c3ccc(Cl)cc3)cc2NC(=O)c2cccnc2)ccc1OCCN1CCCC1` stands 380 nM; under `COc1ccc(Nc2nc(NCc3ccco3)c3ccccc3n2)cc1`, 740 nM.
`CCN(CC)CCN(CCN(CC)CC)c1ccc(-c2nc3cc(Cl)c(Cl)cc3[nH]2)cc1` came in with an XC50 of 785 nM.
To `Cc1cc(Cl)c(Cl)cc1NC(=O)Nc1cccc(C(F)(F)F)c1` belongs 873 nM.
In turn, `CCOC(=O)c1c(C)noc1Nc1cccc(C)c1C` gave an XC50 of 416 nM.
To `Cc1cc(OCCCN2CCC(NS(=O)(=O)c3cccc(Br)c3)CC2)c2ccccc2n1` belongs 1110 nM; to `O=C(Nc1ccnc(N2CCCN(Cc3cccc(O)c3)CC2)c1)c1ccc(F)cc1`, 1480 nM.
Compound `Cc1cc(=NN=Cc2ccc(F)cc2)c2cc(C(F)(F)F)ccc2[nH]1` came in with an XC50 of 228 nM.
To `Cc1ccc(C)c(NC(=O)NCCNc2ccnc(Nc3ccc(F)cc3)n2)c1` belongs 817 nM.
Under `O=C(/C=C/c1ccc(C(F)(F)F)cc1)N1CCC(CCN2CCC(c3c[nH]c4ccccc34)CC2)CC1` stands 716 nM; under `COC(=O)c1ccc(CC(C)NCC(O)c2cccc(C(F)(F)F)c2)cc1C` (configuration not stated), 974 nM; under `ON=C1CCc2cc(-c3nc(-c4ccc(OCCN5CCCCC5)cc4)[nH]c3-c3ccncc3)ccc21`, 804 nM.
Under `CC1(C)N=C(NC(=O)c2ccc([N+](=O)[O-])cc2)N=C(N)N1OCc1ccc2ccccc2c1` stands 7.57 nM.
`Cc1[nH]c(C)c(-c2ccc(OCCCCSc3ccncc3)cc2)c(=O)c1Br` returned an XC50 of 246 nM.
Compound `O=C(Nc1ccccc1Cl)c1cc2ccccc2cc1O` came in with an XC50 of 1010 nM.
Compound `Cc1ccc2c(c1[N+](=O)[O-])N=NCC2Oc1ccccc1` (configuration not stated) registered an XC50 of 868 nM.
Compound `CCc1ccc(-n2c(=O)c3cccnc3n2CC(=O)NC2CCCC2)cc1` had an XC50 of 917 nM.
To `CCCCCC(C)C(C)c1cc(OC(N)=O)c2c(c1)OC(C)(C)C=C2c1ccncc1` (configuration not stated) belongs 895 nM; to `COc1ccc2[nH]cc(C3CC4CCC(C3)N4CCC3CCN(C(=O)/C=C/c4ccc(Cl)c(Cl)c4)CC3)c2c1` (configuration not stated), 624 nM; to `Cc1ccc(NC(=O)Nc2ccc(I)c(OCCN(C)C)c2)cc1Cl`, 564 nM.
Under `CC(C)(C)NCC(O)COc1ccc(Cl)cc1C1=NNC(=O)CC1` (configuration not stated) stands 150 nM; under `CCC1CCc2cc(N)cc(-c3nc4c(c(C)nn4CC)c(=O)[nH]3)c2O1` (configuration not stated), 1120 nM; under `CC(C)(C)Nc1nc(Nc2cccc([N+](=O)[O-])c2)nc(-n2ccnc2)n1`, 811 nM.
As to `O=C(Nc1cccc(-c2ccc(-c3nc4cc(F)ccc4[nH]3)cc2)c1)c1csnn1`, the XC50 is 278 nM.
To `COc1cc(Br)c(S(=O)(=O)n2cc(CN3CCC(N)CC3)c3cc(Cl)ccc32)cc1OC` belongs 985 nM; to `Oc1c(CN2CCC(Cc3ccccc3)CC2)cc(Cl)c2cccnc12`, 881 nM.
The compound `O=C(c1cccc(COc2ccc3c(c2)CCN(C2CCCC2)CC3)c1)N1CCN(c2ccncc2)CC1` gave an XC50 of 740 nM.
Under `Cc1nc(-c2ccc(-c3ccc(C(=O)Nc4ccc(-n5ccnc5)c(N5CCN(C)CC5)c4)cc3)c(C)c2)no1` stands 834 nM; under `Cn1nccc1C(=O)NCCNCc1ccc(-c2cccc(-c3nc4cc(C(F)(F)F)ccc4[nH]3)c2)cc1`, 117 nM.
